Measurements as given in ChEMBL document CHEMBL3885861, “Open TG-GATES”.

Species: Rattus norvegicus
Experiment: Open TG-GATES - Regimen: Single
Format: toxicity, organism-based, Sprague-Dawley
Parameters: regimen Single, gender Male, age 6 weeks
Conditions: in vivo, po, 5 mg/kg, route gavage, dose level Low; for APTT / Bas / Eos / Fbg / Hb / Ht / Lym / MCH / MCHC / MCV / Mono / Neu / PT / Plat / RBC / Ret / WBC: tissue Blood; for KIDNEY_L / KIDNEY_R / KIDNEY_TOTAL: tissue Kidney; for LIVER: tissue Liver; for A/G / ALP / ALT / AST / BUN / CRE / Ca / Cl / DBIL / GLC / IP / K / LDH / Na / PL / RALB / TBIL / TC / TG / TP / gamma-GTP: tissue Plasma

CC(=N)S [THIOACETAMIDE]
TERMINAL_BW (9 h): 186.4 g | APTT (9 h): 16.8 s | Bas (9 h): 0% | Eos (9 h): 0.6% | Fbg (9 h): 216.2 mg/dL | Hb (9 h): 12.8 g/dL | Ht (9 h): 39.3% | Lym (9 h): 79.2% | MCH (9 h): 21.2 pg | MCHC (9 h): 32.5% | MCV (9 h): 65.1 fL | Mono (9 h): 6.2% | Neu (9 h): 13.8% | PT (9 h): 12.3 s | Plat (9 h): 102.7 x10_4/uL | RBC (9 h): 606 x10_4/ul | Ret (9 h): 9.4% | WBC (9 h): 94.1 x10_2/uL | KIDNEY_L (9 h): 0.9 g | KIDNEY_R (9 h): 0.9 g | KIDNEY_TOTAL (9 h): 1.7 g | LIVER (9 h): 7.8 g | A/G (9 h): 2.3 | ALP (9 h): 794.4 IU/L | ALT (9 h): 32 IU/L | AST (9 h): 61.6 IU/L | BUN (9 h): 11.6 mg/dL | CRE (9 h): 0.5 mg/dL | Ca (9 h): 10.3 mg/dL | Cl (9 h): 103.8 meq/L | DBIL (9 h): 0.01 mg/dL | GLC (9 h): 180 mg/dL | IP (9 h): 9.8 mg/dL | K (9 h): 4.4 meq/L | LDH (9 h): 78.4 IU/L | Na (9 h): 137.4 meq/L | PL (9 h): 138.6 mg/dL | RALB (9 h): 3.8 g/dL | TBIL (9 h): 0.4 mg/dL | TC (9 h): 84.4 mg/dL | TG (9 h): 35.4 mg/dL | TP (9 h): 5.5 g/dL | gamma-GTP (9 h): 1.6 IU/L | TERMINAL_BW (24 h): 198.9 g | APTT (24 h): 16.7 s | Bas (24 h): 0% | Eos (24 h): 0.8% | Fbg (24 h): 219.6 mg/dL | Hb (24 h): 13.3 g/dL | Ht (24 h): 40.1% | Lym (24 h): 78.6% | MCH (24 h): 22 pg | MCHC (24 h): 33.2% | MCV (24 h): 66.3 fL | Mono (24 h): 9.4% | Neu (24 h): 11.4% | PT (24 h): 12.3 s | Plat (24 h): 102.8 x10_4/uL | RBC (24 h): 606.4 x10_4/ul | Ret (24 h): 8.7% | WBC (24 h): 127.7 x10_2/uL | KIDNEY_L (24 h): 0.9 g | KIDNEY_R (24 h): 0.9 g | KIDNEY_TOTAL (24 h): 1.8 g | LIVER (24 h): 9.7 g | A/G (24 h): 2.1 | ALP (24 h): 891 IU/L | ALT (24 h): 38.8 IU/L | AST (24 h): 68.6 IU/L | BUN (24 h): 17 mg/dL | CRE (24 h): 0.5 mg/dL | Ca (24 h): 10.6 mg/dL | Cl (24 h): 103.8 meq/L | DBIL (24 h): 0.01 mg/dL | GLC (24 h): 179.6 mg/dL | IP (24 h): 7.6 mg/dL | K (24 h): 5.3 meq/L | LDH (24 h): 84.2 IU/L | Na (24 h): 136.6 meq/L | PL (24 h): 157.6 mg/dL | RALB (24 h): 3.9 g/dL | TBIL (24 h): 0.3 mg/dL | TC (24 h): 85.6 mg/dL | TG (24 h): 110.8 mg/dL | TP (24 h): 5.8 g/dL | gamma-GTP (24 h): 1.6 IU/L
